# Where “and” joins values, the source holds several entries; their conditions need not be identical. Identical values can stand only once. Like-named read-outs stand apart in the source and are kept apart here.
# Details: 1 mg single oral dose, fasting; for AUC0-∞: not corrected by dose/weight
# Experimental: The data used in this work were obtained from four bioequivalence clinical trials conducted at the Clinical Trials Unit of the Hospital Universitario de La Princesa (UECHUP) (EUDRA-CT IDs: 2012-004433-17, 2013-002159-14, 2014-001123-77 and 2021-000315-23). […] The reference formulation (R) in all cases was Azilect® 1 mg tablets (TEVA Pharmaceuticals Europe B.V.), which was compared against different test formulations (T), all of them 1 mg tablets, except in clinical trial 3, whose test formulation was orodispersible 1 mg. The four bioequivalence trials had two periods and two sequences (TR and RT). In the first period, the volunteers randomly were administered one of the two formulations and, in the following period, after a 7-day washout period, the opposite formulation. All of them were reviewed and approved by Independent Ethics Board (IEB) of the Hospital Universitario de La Princesa, and by the Spanish Drug Agency (AEMPS). In addition, they were performed in accordance with the guidelines of the International Conference on Harmonization for Good Clinical Practice (ICH-GCP), current Spanish legislation and the Revised Declaration of Helsinki. The pharmacogenetic study (SFC-FG-2020-1) was likewise approved by the IEB of Hospital Universitario de La Princesa (registry number 4176, 9 July 2020).
# In each period, the drug was administered under fasting conditions, which were maintained until 5 h after drug administration. Each subject provided 20 or 21 blood samples (depending on the clinical trial) that were extracted by BD Vacutainer® vacuum system with EDTA K2 tubes for analysis at different times between 0 h (before receiving the drug) and up to 12 h after drug intake. […] A high-performance liquid chromatography coupled to triple quadrupole mass spectrometry (HPLC-MS/MS) analytical method was used. The latter was validated according to European regulations for bioequivalence assessment, with a lower limit of quantification (LLOQ) of 10 pg/mL and a calibration range of 10–10,000 pg/mL.
# Pharmacokinetic parameters were calculated with WinNonlin Professional (Scientific Consulting, Inc., Cary, NC, USA) following a non-compartmental model. The area under the curve (AUC0-t), was obtained by the trapezoidal method. The extrapolation to infinity (AUC0-∞) was determined by the sum of two partial AUCs: AUCt-∞ calculated by the ratio Ct/k, where Ct is the last detectable concentration and k the elimination slope; plus AUC0-t. Cmax and tmax were directly obtained from the plasma time-concentration curves. t1/2 was calculated as Ln2/k. Plasma clearance adjusted for bioavailability (Cl/F) was calculated as dose/AUC. Finally, the volume of distribution adjusted for bioavailability (Vd/F) was calculated by dividing Cl/F by k.
# The SPSS software (v23.0, SPSS Inc., Chicago, IL, USA) was used for statistical analyses. AUC0-∞, and Cmax were divided by the dose/weight (DW) ratio to correct sex-related variability related to a varying weight. For the same purpose, Vd/F and Cl/F were divided by weight. With the purpose of normalizing their distributions, all pharmacokinetic parameters were logarithmically transformed for statistical analysis. Initially, a univariate analysis was conducted of the demographic characteristics according to sex and ethnicity, and of the pharmacokinetic parameters or ADR incidence based on sex, biogeographical group (hereinafter, “ethnicity”), genotypes and phenotypes. T-tests were used for the comparison of means for variables with two categories and ANOVA tests for variables with three or more categories, followed by a Bonferroni post-hoc. The Shapiro–Wilk test was used to address the normality of demographic characteristics. For those not following a normal distribution, the nonparametric Kruskal–Wallis test was used.
# [1] = SLC22A1*3 (rs12208357) *1/*1, n=104
# [2] = SLC22A1*3 (rs12208357) *1/*3, n=8
# [3] = SLC22A1*5 (rs34059508) *1/*1, n=113
# [4] = SLC22A1*5 (rs34059508) *1/*5, n=5
# [5] = Total with CYP1A2 diplotype, n=115
# [6] = the single volunteer with the ADR headache
compound,measurement,setting,value
"C#CCN[C@@H]1CCc2ccccc21 [rasagiline, Rasagiline]",tmax,"CYP2C19 µM, n=3",0.61 ± 0.35 h
same,AUC0-∞/DW,"CYP2C19 IM, n=36",258.70 ± 75.90 ng·kg·h/mL/mg
same,Cmax/DW,"CYP2C19 IM, n=36",415.50 ± 185.56 ng·kg/mL/mg
same,t1/2,"CYP2C19 IM, n=36",2.85 ± 0.84 h
same,tmax,"CYP2C19 IM, n=36",0.46 ± 0.22 h
same,AUC0-∞/DW,"CYP2C19 NM, n=56",267.83 ± 70.38 ng·kg·h/mL/mg
same,Cmax/DW,"CYP2C19 NM, n=56",402.65 ± 142.62 ng·kg/mL/mg
same,t1/2,"CYP2C19 NM, n=56",2.67 ± 0.91 h
same,tmax,"CYP2C19 NM, n=56",0.53 ± 0.27 h
same,AUC0-∞/DW,"CYP2C19 PM, n=2",302.71 ± 14.98 ng·kg·h/mL/mg
same,Cmax/DW,"CYP2C19 PM, n=2",412.92 ± 55.36 ng·kg/mL/mg
same,t1/2,"CYP2C19 PM, n=2",1.55 ± 0.41 h
same,tmax,"CYP2C19 PM, n=2",0.75 ± 0.11 h
same,AUC0-∞/DW,"CYP2C19 RM, n=21",274.03 ± 86.22 ng·kg·h/mL/mg
same,Cmax/DW,"CYP2C19 RM, n=21",426.69 ± 180.45 ng·kg/mL/mg
same,t1/2,"CYP2C19 RM, n=21",2.66 ± 0.85 h
same,tmax,"CYP2C19 RM, n=21",0.41 ± 0.11 h
same,AUC0-∞/DW,"Caucasian, n=83",258.45 ± 71.81 ng·kg·h/mL/mg
same,Cmax/DW,"Caucasian, n=83",418.18 ± 169.33 ng·kg/mL/mg
same,t1/2,"Caucasian, n=83",2.56 ± 0.84 h
same,tmax,"Caucasian, n=83",0.47 ± 0.19 h
same,AUC0-∞/DW,"Men, n=53",278.61 ± 73.51 ng·kg·h/mL/mg
same,Cmax/DW,"Men, n=53",447.91 ± 163.88 ng·kg/mL/mg
same,t1/2,"Men, n=53",2.31 ± 0.85 *^& h
same,tmax,"Men, n=53",0.52 ± 0.28 h
same,AUC0-∞/DW,"Mixed ethnicity, n=35",281.05 ± 80.09 ng·kg·h/mL/mg
same,Cmax/DW,"Mixed ethnicity, n=35",389.35 ± 147.25 ng·kg/mL/mg
same,t1/2,"Mixed ethnicity, n=35",2.95 ± 0.94 h
same,tmax,"Mixed ethnicity, n=35",0.55 ± 0.31 h
same,AUC0-∞/DW,"NAT2 RA, n=9",230.53 ± 67.28 ng·kg·h/mL/mg
same,Cmax/DW,"NAT2 RA, n=9",315.46 ± 178.72 ng·kg/mL/mg
same,t1/2,"NAT2 RA, n=9",2.72 ± 0.68 h
same,tmax,"NAT2 RA, n=9",0.50 ± 0.24 h
same,AUC0-∞/DW,"NAT2 SA, n=103",266.53 ± 75.05 ng·kg·h/mL/mg
same,Cmax/DW,"NAT2 SA, n=103","420.47 ± 161.94 (pu = 0.018, pm = 0.018) ng*kg/mL*mg"
same,t1/2,"NAT2 SA, n=103",2.62 ± 0.83 h
same,tmax,"NAT2 SA, n=103",0.49 ± 0.24 h
same,AUC0-∞/DW,[1],265.80 ± 73.86 ng·kg·h/mL/mg
same,Cmax/DW,[1],401.10 ± 159.35 ng·kg/mL/mg
same,t1/2,[1],2.71 ± 0.89 h
same,tmax,[1],0.51 ± 0.24 h
same,AUC0-∞/DW,[2],258.87 ± 34.73 ng·kg·h/mL/mg
same,Cmax/DW,[2],473.14 ± 99.07 ng·kg/mL/mg
same,t1/2,[2],2.22 ± 0.81 h
same,tmax,[2],0.35 ± 0.11 (pu = 0.038 pm = 0.032) h
same,AUC0-∞/DW,[3],267.52 ± 75.21 ng·kg·h/mL/mg
same,Cmax/DW,[3],415.96 ± 161.85 ng·kg/mL/mg
same,t1/2,[3],2.70 ± 0.89 h
same,tmax,[3],0.49 ± 0.23 h
same,AUC0-∞/DW,[4],211.83 ± 36.15 ng·kg·h/mL/mg
same,Cmax/DW,[4],"266.58 ± 130.60 (pu = 0.022, pm = 0.003) ng*kg/mL*mg"
same,t1/2,[4],2.24 ± 0.71 h
same,tmax,[4],0.67 ± 0.24 (pu = 0.018) h
same,AUC0-∞/DW,[5],265.29 ± 75.63 ng·kg·h/mL/mg
same,Cmax/DW,[5],411.77 ± 164.35 ng·kg/mL/mg
same,t1/2,[5],2.66 ± 0.89 h
same,tmax,[5],0.49 ± 0.24 h
same,AUC0-∞/DW,"Total, n=118",265.16 ± 74.74 ng·kg·h/mL/mg
same,Cmax/DW,"Total, n=118",409.63 ± 163.00 ng·kg/mL/mg and 409.63 ± 163.01 ng·kg/mL/mg
same,t1/2,"Total, n=118",2.68 ± 0.89 h
same,tmax,"Total, n=118",0.49 ± 0.24 h
same,AUC0-∞/DW,"UGT1A6 rs7592281 G/G, n=111",264.10 ± 73.64 ng·kg·h/mL/mg
same,Cmax/DW,"UGT1A6 rs7592281 G/G, n=111",409.07 ± 159.30 ng·kg/mL/mg
same,t1/2,"UGT1A6 rs7592281 G/G, n=111",2.66 ± 0.89 h
same,tmax,"UGT1A6 rs7592281 G/G, n=111",0.48 ± 0.22 h
same,AUC0-∞/DW,"UGT1A6 rs7592281 G/T, n=7",281.88 ± 95.76 ng·kg·h/mL/mg
same,Cmax/DW,"UGT1A6 rs7592281 G/T, n=7",418.57 ± 229.87 ng·kg/mL/mg
same,t1/2,"UGT1A6 rs7592281 G/T, n=7",3.03 ± 0.72 h
same,tmax,"UGT1A6 rs7592281 G/T, n=7","0.70 ± 0.32 (pu = 0.021, pm = 0.029) h"
same,AUC0-∞/DW,"Women, n=65",254.19 ± 74.50 ng·kg·h/mL/mg
same,Cmax/DW,"Women, n=65",378.42 ± 156.70 ng·kg/mL/mg
same,t1/2,"Women, n=65",2.98 ± 0.80 h
same,tmax,"Women, n=65",0.48 ± 0.19 h
same,AUC0-∞,men,3.71 ± 0.88 ng·h/mL
same,AUC0-∞/DW,[6],197.49 ng·kg·h/mL/mg
same,Cmax/DW,[6],339.71 ng·kg/mL/mg
same,AUC0-∞,women,4.29 ± 1.41 ng·h/mL

# Reference: paper PMC9610285 (Pharmaceutics, 2022)
